Laboratory results taken from US20250122219A1 (priority 2023, published 2025).
≈ marks a conversion by molar mass, not a printed value.

Tests used:
HIV-1 (IIIB) = assay: Antiviral assay in MT-4 cells; format: cell-based; settings: Human immunodeficiency virus 1, MT4, 120 h; HIV-1 IIIB in MT-4 cells, 5 days incubation, Cell Titer Glo; read-out: MT4 EC50
In short: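 HIV-1 IIIB-infected MT-4 cells (fresh 1:250 virus stock dilution; mock-infected controls) incubated 5 days at 37 °C with serially diluted compounds in RPMI/10% FBS; 5 μM AZT as positive control. Cell viability read by CellTiter-Glo luminescence as measure of protection from viral replication.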

physchem = format: physicochemical; settings: 23 °C, thermodynamic from solid, ambient temperature, 5 mg/mL dose concentration; for solubility thermodynamic: aqueous buffer, PBS; for solubility thermodynamic at 24 h: FaSSIF
Method: Approximately 7 mg of each test compound as a dry powder was placed in a vial. Aliquots were weighed out for each assay media at 2 hour and 24 hour time points, to be analyzed. The appropriate buffer (FaSSIF or PBS) was added to each vial such that the final dose concentration of 5 mg/mL was achieved. […] The plate was sealed with a pierceable heat seal and analyzed by HPLC-UV.
A system QC (0.01 mg/mL Caffeine in DMSO) was injected every 12-15 injections. […] Results are reported using data obtained at 280 nm. The resulting peak areas were plotted against the known concentrations from the calibration and the filtrates are quantified with respect to the linear regression using Agilent OpenLab Intelligent Reporting Software. The results are reported electronically in mg/mL.

[1] = Cytotoxicity assay in MT-4 cells; format: cell-based; settings: human; uninfected MT-4 cells, 5 days incubation, Cell Titer Glo; read-out: MT4 CC50
In short: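 Uninfected MT-4 cells exposed to serially diluted compounds in RPMI with 10% FBS for 5 days at 37 °C. Viability by Cell Titer Glo chemiluminescence. Puromycin […] as baseline cytotoxicity control.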

SMILES	EC50 (HIV-1 (IIIB)) [nM]	solubility thermodynamic (physchem) [µg/mL]	solubility thermodynamic at 24 h (physchem) [µg/mL]	CC50 at 5 days [1] [nM]
COCCOC(=O)OCOc1c2n(cc(C(=O)NCc3ccc(F)cc3F)c1=O)[C@@H]1CN(C2=O)[C@@H](C)CC[C@]12CC(OC)=NO2 [Example 5, (((3′S,5S,7′R)-10′-((2,4-difluorobenzyl)carbamoyl)-3-methoxy-3′-methyl-1′,11′-dioxo-1′,4′,5′,11′-tetrahydro-3′H,4H,7′H-spiro[isoxazole-5,6′-[2,7]methanopyrido[1,2-a][1,4]diazonin]-12′-yl)oxy)methyl (2-methoxyethyl) carbonate]	4.08	39 (≈ 61.5 µM)	168 (≈ 265 µM)	39800
CC1=NO[C@@]2(CC[C@H](C)N3C[C@H]2n2cc(C(=O)NCc4ccc(F)cc4F)c(=O)c(OC(=O)OC(C)C)c2C3=O)C1 [Example 22, (3′S,5S,7′R)-10′-((2,4-difluorobenzyl)carbamoyl)-3,3′-dimethyl-1′,11′-dioxo-1′,4′,5′,11′-tetrahydro-3′H,4H,7′H-spiro[isoxazole-5,6′-[2,7]methanopyrido[1,2-a][1,4]diazonin]-12′-yl isopropyl carbonate]	0.992	34 (≈ 59.4 µM)	70 (≈ 122 µM)	12500
CC1=NO[C@@]2(CC[C@H](C)N3C[C@H]2n2cc(C(=O)NCc4ccc(F)cc4F)c(=O)c(O[C@H](C)OC(=O)OC(C)C)c2C3=O)C1 (single isomer, unassigned) [Example 20]	11.5		70 (≈ 114 µM)	35000
COC(=O)OCOc1c2n(cc(C(=O)NCc3ccc(F)cc3F)c1=O)[C@@H]1CN(C2=O)[C@@H](C)CC[C@]12CC(C)=NO2 [Example 12, (((3′S,5S,7′R)-10′-((2,4-difluorobenzyl)carbamoyl)-3,3′-dimethyl-1′,11′-dioxo-1′,4′,5′,11′-tetrahydro-3′H,4H,7′H-spiro[isoxazole-5,6′-[2,7]methanopyrido[1,2-a][1,4]diazonin]-12′-yl)oxy)methyl methyl carbonate]	3.81		30 (≈ 52.2 µM)	25900
CC(=O)Oc1c2n(cc(C(=O)NCc3ccc(F)cc3F)c1=O)[C@@H]1CN(C2=O)[C@@H](C)CC[C@]12CC(C)=NO2 [Example 16, (3′S,5S,7′R)-10′-((2,4-difluorobenzyl)carbamoyl)-3,3′-dimethyl-1′,11′-dioxo-1′,4′,5′,11′-tetrahydro-3′H,4H,7′H-spiro[isoxazole-5,6′-[2,7]methanopyrido[1,2-a][1,4]diazonin]-12′-yl acetate]	1.3	372	270	11200
CC1=NO[C@@]2(CC[C@H](C)N3C[C@H]2n2cc(C(=O)NCc4ccc(F)cc4F)c(=O)c(OC(=O)C(C)(C)C)c2C3=O)C1 [Example 19, (3′S,5S,7′R)-10′-((2,4-difluorobenzyl)carbamoyl)-3,3′-dimethyl-1′,11′-dioxo-1′,4′,5′,11′-tetrahydro-3′H,4H,7′H-spiro[isoxazole-5,6′-[2,7]methanopyrido[1,2-a][1,4]diazonin]-12′-yl pivalate]	1.53		83 (≈ 145 µM)	12300
CC1=NO[C@@]2(CC[C@H](C)N3C[C@H]2n2cc(C(=O)NCc4ccc(F)cc4F)c(=O)c(OCOC(=O)OC(C)C)c2C3=O)C1 [Example 24, (((3′S,5S,7′R)-10′-((2,4-difluorobenzyl)carbamoyl)-3,3′-dimethyl-1′,11′-dioxo-1′,4′,5′,11′-tetrahydro-3′H,4H,7′H-spiro[isoxazole-5,6′-[2,7]methanopyrido[1,2-a][1,4]diazonin]-12′-yl)oxy)methyl isopropyl carbonate]	5.17		8 (≈ 13.3 µM)	31700
COC1=NO[C@@]2(CC[C@H](C)N3C[C@H]2n2cc(C(=O)NCc4ccc(F)cc4F)c(=O)c(OC(=O)CCCC(=O)O)c2C3=O)C1 [Example 73, 5-(((3′S,5S,7′R)-10′-((2,4-difluorobenzyl)carbamoyl)-3-methoxy-3′-methyl-1′,11′-dioxo-1′,4′,5′,11′-tetrahydro-3′H,4H,7′H-spiro[isoxazole-5,6′-[2,7]methanopyrido[1,2-a][1,4]diazonin]-12′-yl)oxy)-5-oxopentanoic acid]	0.797			20200
CC(=O)OCOc1c2n(cc(C(=O)NCc3ccc(F)cc3F)c1=O)[C@@H]1CN(C2=O)[C@@H](C)CC[C@]12CC(C)=NO2 [Example 84, (((3′S,5S,7′R)-10′-((2,4-difluorobenzyl)carbamoyl)-3,3′-dimethyl-1′,11′-dioxo-1′,4′,5′,11′-tetrahydro-3′H,4H,7′H-spiro[isoxazole-5,6′-[2,7]methanopyrido[1,2-a][1,4]diazonin]-12′-yl)oxy)methyl acetate]	3.29			19900
COC1=NO[C@@]2(CC[C@H](C)N3C[C@H]2n2cc(C(=O)NCc4ccc(F)cc4F)c(=O)c(OC(=O)C4CCCC4)c2C3=O)C1 [Example 52, (3′S,5S,7′R)-10′-((2,4-difluorobenzyl)carbamoyl)-3-methoxy-3′-methyl-1′,11′-dioxo-1′,4′,5′,11′-tetrahydro-3′H,4H,7′H-spiro[isoxazole-5,6′-[2,7]methanopyrido[1,2-a][1,4]diazonin]-12′-yl cyclopentanecarboxylate]	0.604			24700
CCCCCCCCC(=O)OCOc1c2n(cc(C(=O)NCc3ccc(F)cc3F)c1=O)[C@@H]1CN(C2=O)[C@@H](C)CC[C@]12CC(C)=NO2 [Example 98, (((3′S,5S,7′R)-10′-((2,4-difluorobenzyl)carbamoyl)-3,3′-dimethyl-1′,11′-dioxo-1′,4′,5′,11′-tetrahydro-3′H,4H,7′H-spiro[isoxazole-5,6′-[2,7]methanopyrido[1,2-a][1,4]diazonin]-12′-yl)oxy)methyl nonanoate]	3.87			≥ 50000

More lines, main results first:

EC50 (HIV-1 (IIIB)) [nM]	solubility thermodynamic (physchem) [µg/mL]	solubility thermodynamic at 24 h (physchem) [µg/mL]	SMILES	CC50 at 5 days [1] [nM]
6.25			COC[C@@H](C)OC(=O)OCOc1c2n(cc(C(=O)NCc3ccc(F)cc3F)c1=O)[C@@H]1CN(C2=O)[C@@H](C)CC[C@]12CC(OC)=NO2 [Example 214, (((3′S,5S,7′R)-10′-((2,4-difluorobenzyl)carbamoyl)-3-methoxy-3′-methyl-1′,11′-dioxo-1′,4′,5′,11′-tetrahydro-3′H,4H,7′H-spiro[isoxazole-5,6′-[2,7]methanopyrido[1,2-a][1,4]diazonin]-12′-yl)oxy)methyl ((R)-1-methoxypropan-2-yl) carbonate]	≥ 50000
0.441			CCCCCCCOC(=O)OCOc1c2n(cc(C(=O)NCc3ccc(F)cc3F)c1=O)[C@@H]1CN(C2=O)[C@@H](C)CC[C@]12CC(OC)=NO2 [Example 184, (((3′S,5S,7′R)-10′-((2,4-difluorobenzyl)carbamoyl)-3-methoxy-3′-methyl-1′,11′-dioxo-1′,4′,5′,11′-tetrahydro-3′H,4H,7′H-spiro[isoxazole-5,6′-[2,7]methanopyrido[1,2-a][1,4]diazonin]-12′-yl)oxy)methyl heptyl carbonate]	9980
0.262			CCCCCCOC(=O)OCOc1c2n(cc(C(=O)NCc3ccc(F)cc3F)c1=O)[C@@H]1CN(C2=O)[C@@H](C)CC[C@]12CC(C)=NO2 [Example 181, (((3′S,5S,7′R)-10′-((2,4-difluorobenzyl)carbamoyl)-3,3′-dimethyl-1′,11′-dioxo-1′,4′,5′,11′-tetrahydro-3′H,4H,7′H-spiro[isoxazole-5,6′-[2,7]methanopyrido[1,2-a][1,4]diazonin]-12′-yl)oxy)methyl hexyl carbonate]	14700
3.56			CC1=NO[C@@]2(CC[C@H](C)N3C[C@H]2n2cc(C(=O)NCc4ccc(F)cc4F)c(=O)c(OCOC(=O)OCCCC(C)C)c2C3=O)C1 [Example 203, (((3′S,5S,7′R)-10′-((2,4-difluorobenzyl)carbamoyl)-3,3′-dimethyl-1′,11′-dioxo-1′,4′,5′,11′-tetrahydro-3′H,4H,7′H-spiro[isoxazole-5,6′-[2,7]methanopyrido[1,2-a][1,4]diazonin]-12′-yl)oxy)methyl (4-methylpentyl) carbonate]	26400
1.78			CCCCCOC(=O)Oc1c2n(cc(C(=O)NCc3ccc(F)cc3F)c1=O)[C@@H]1CN(C2=O)[C@@H](C)CC[C@]12CC(C)=NO2 [Example 129, (3′S,5S,7′R)-10′-((2,4-difluorobenzyl)carbamoyl)-3,3′-dimethyl-1′,11′-dioxo-1′,4′,5′,11′-tetrahydro-3′H,4H,7′H-spiro[isoxazole-5,6′-[2,7]methanopyrido[1,2-a][1,4]diazonin]-12′-yl pentyl carbonate]	21700
2.14			CCCCCCCCCOC(=O)Oc1c2n(cc(C(=O)NCc3ccc(F)cc3F)c1=O)[C@@H]1CN(C2=O)[C@@H](C)CC[C@]12CC(OC)=NO2 [Example 138, (3′S,5S,7′R)-10′-((2,4-difluorobenzyl)carbamoyl)-3-methoxy-3′-methyl-1′,11′-dioxo-1′,4′,5′,11′-tetrahydro-3′H,4H,7′H-spiro[isoxazole-5,6′-[2,7]methanopyrido[1,2-a][1,4]diazonin]-12′-yl nonyl carbonate]	14100
